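Values below derive from 48-hour exposures of cells grown in 96-well plates, with endpoints linearly interpolated between the two concentrations bracketing the appropriate inhibition level. At the TGI there is no net growth.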
How the values were obtained:
Assay in all cases: DTP human tumour cell line panel, 48 h
786-0 renal = test system: 786-0 renal
A498 renal = test system: A498 renal
A549 NSCLC = test system: A549 NSCLC
ACHN renal = test system: ACHN renal
CAKI-1 renal = test system: CAKI-1 renal
CCRF-CEM leukemia = test system: CCRF-CEM leukemia
COLO 205 colon = test system: COLO 205 colon
DLD-1 colon = test system: DLD-1 colon
DMS 114 small cell lung = test system: DMS 114 small cell lung
DMS 273 small cell lung = test system: DMS 273 small cell lung
EKVX NSCLC = test system: EKVX NSCLC
HCC-2998 colon = test system: HCC-2998 colon
HCT-116 colon = test system: HCT-116 colon
HCT-15 colon = test system: HCT-15 colon
HL-60(TB) leukemia = test system: HL-60(TB) leukemia
HOP-18 NSCLC = test system: HOP-18 NSCLC
HOP-62 NSCLC = test system: HOP-62 NSCLC
HOP-92 NSCLC = test system: HOP-92 NSCLC
HT29 colon = test system: HT29 colon
IGROV1 ovarian = test system: IGROV1 ovarian
KM12 colon = test system: KM12 colon
KM20L2 colon = test system: KM20L2 colon
LXFL 529 NSCLC = test system: LXFL 529 NSCLC
M14 melanoma = test system: M14 melanoma
M19-MEL melanoma = test system: M19-MEL melanoma
MALME-3M melanoma = test system: MALME-3M melanoma
MOLT-4 leukemia = test system: MOLT-4 leukemia
NCI-H226 lung = test system: NCI-H226 lung
NCI-H23 lung = test system: NCI-H23 lung
NCI-H460 lung = test system: NCI-H460 lung
NCI-H522 lung = test system: NCI-H522 lung
OVCAR-3 ovarian = test system: OVCAR-3 ovarian
OVCAR-4 ovarian = test system: OVCAR-4 ovarian
OVCAR-5 ovarian = test system: OVCAR-5 ovarian
OVCAR-8 ovarian = test system: OVCAR-8 ovarian
RXF 393 renal = test system: RXF 393 renal
RXF-631 renal = test system: RXF-631 renal
SF-268 CNS = test system: SF-268 CNS
SF-295 CNS = test system: SF-295 CNS
SF-539 CNS = test system: SF-539 CNS
SK-MEL-2 melanoma = test system: SK-MEL-2 melanoma
SK-MEL-28 melanoma = test system: SK-MEL-28 melanoma
SK-MEL-5 melanoma = test system: SK-MEL-5 melanoma
SK-OV-3 ovarian = test system: SK-OV-3 ovarian
SN12C renal = test system: SN12C renal
SNB-19 CNS = test system: SNB-19 CNS
SNB-75 CNS = test system: SNB-75 CNS
SNB-78 CNS = test system: SNB-78 CNS
SW-620 colon = test system: SW-620 colon
TK-10 renal = test system: TK-10 renal
U251 CNS = test system: U251 CNS
UACC-257 melanoma = test system: UACC-257 melanoma
UACC-62 melanoma = test system: UACC-62 melanoma
UO-31 renal = test system: UO-31 renal
XF 498 CNS = test system: XF 498 CNS
K-562 leukemia = test system: K-562 leukemia
LOX IMVI melanoma = test system: LOX IMVI melanoma
RPMI-8226 leukemia = test system: RPMI-8226 leukemia

C=CCN=C1NC(=O)C(CC(=O)Nc2ccc([N+](=O)[O-])cc2[N+](=O)[O-])S1 (stereo not drawn)
TGI (786-0 renal): > 100 µM | TGI (A498 renal): > 100 µM | TGI (A549 NSCLC): > 100 µM | TGI (ACHN renal): > 100 µM | TGI (CAKI-1 renal): > 100 µM | TGI (CCRF-CEM leukemia): > 100 µM | TGI (COLO 205 colon): > 100 µM | TGI (DLD-1 colon): > 100 µM | TGI (DMS 114 small cell lung): > 100 µM | TGI (DMS 273 small cell lung): > 100 µM | TGI (EKVX NSCLC): > 100 µM | TGI (HCC-2998 colon): > 100 µM | TGI (HCT-116 colon): > 100 µM | TGI (HCT-15 colon): > 100 µM | TGI (HL-60(TB) leukemia): > 100 µM | TGI (HOP-18 NSCLC): > 100 µM | TGI (HOP-62 NSCLC): > 100 µM | TGI (HOP-92 NSCLC): > 100 µM | TGI (HT29 colon): > 100 µM | TGI (IGROV1 ovarian): > 100 µM | TGI (KM12 colon): > 100 µM | TGI (KM20L2 colon): > 100 µM | TGI (LXFL 529 NSCLC): > 100 µM | TGI (M14 melanoma): > 100 µM | TGI (M19-MEL melanoma): > 100 µM | TGI (MALME-3M melanoma): > 100 µM | TGI (MOLT-4 leukemia): > 100 µM | TGI (NCI-H226 lung): > 100 µM | TGI (NCI-H23 lung): > 100 µM | TGI (NCI-H460 lung): > 100 µM | TGI (NCI-H522 lung): > 100 µM | TGI (OVCAR-3 ovarian): > 100 µM | TGI (OVCAR-4 ovarian): > 100 µM | TGI (OVCAR-5 ovarian): > 100 µM | TGI (OVCAR-8 ovarian): > 100 µM | TGI (RXF 393 renal): > 100 µM | TGI (RXF-631 renal): > 100 µM | TGI (SF-268 CNS): > 100 µM | TGI (SF-295 CNS): > 100 µM | TGI (SF-539 CNS): > 100 µM | TGI (SK-MEL-2 melanoma): > 100 µM | TGI (SK-MEL-28 melanoma): > 100 µM | TGI (SK-MEL-5 melanoma): > 100 µM | TGI (SK-OV-3 ovarian): > 100 µM | TGI (SN12C renal): > 100 µM | TGI (SNB-19 CNS): > 100 µM | TGI (SNB-75 CNS): > 100 µM | TGI (SNB-78 CNS): > 100 µM | TGI (SW-620 colon): > 100 µM | TGI (TK-10 renal): > 100 µM | TGI (U251 CNS): > 100 µM | TGI (UACC-257 melanoma): > 100 µM | TGI (UACC-62 melanoma): > 100 µM | TGI (UO-31 renal): > 100 µM | TGI (XF 498 CNS): > 100 µM

NC(=O)c1c(-c2ccccc2)c(-c2ccccc2)cc2c(=O)c3ccccc3[nH]c12
TGI (786-0 renal): 21.5 µM | TGI (A498 renal): 39.7 µM | TGI (A549 NSCLC): 50.6 µM | TGI (ACHN renal): 37.7 µM | TGI (CCRF-CEM leukemia): > 100 µM | TGI (COLO 205 colon): > 100 µM | TGI (DLD-1 colon): > 100 µM | TGI (DMS 114 small cell lung): 56.8 µM | TGI (DMS 273 small cell lung): 46.6 µM | TGI (EKVX NSCLC): > 100 µM | TGI (HCC-2998 colon): > 100 µM | TGI (HCT-116 colon): 35.9 µM | TGI (HCT-15 colon): > 100 µM | TGI (HOP-62 NSCLC): 58.5 µM | TGI (HOP-92 NSCLC): 55.5 µM | TGI (HT29 colon): 42.9 µM | TGI (IGROV1 ovarian): 74.3 µM | TGI (K-562 leukemia): > 100 µM | TGI (KM12 colon): 78.6 µM | TGI (KM20L2 colon): 72.9 µM | TGI (LOX IMVI melanoma): > 100 µM | TGI (LXFL 529 NSCLC): 32.7 µM | TGI (M14 melanoma): > 100 µM | TGI (M19-MEL melanoma): 79.3 µM | TGI (MALME-3M melanoma): 37.1 µM | TGI (MOLT-4 leukemia): 44.7 µM | TGI (NCI-H23 lung): 43.5 µM | TGI (NCI-H460 lung): 76.8 µM | TGI (NCI-H522 lung): 20 µM | TGI (OVCAR-3 ovarian): 46.4 µM | TGI (OVCAR-4 ovarian): 30.4 µM | TGI (OVCAR-5 ovarian): > 100 µM | TGI (OVCAR-8 ovarian): 50 µM | TGI (RPMI-8226 leukemia): > 100 µM | TGI (RXF-631 renal): 87.1 µM | TGI (SF-268 CNS): > 100 µM | TGI (SF-295 CNS): > 100 µM | TGI (SF-539 CNS): 37.4 µM | TGI (SK-MEL-2 melanoma): 45.1 µM | TGI (SK-MEL-28 melanoma): 37.6 µM | TGI (SK-MEL-5 melanoma): 32.2 µM | TGI (SK-OV-3 ovarian): 54.2 µM | TGI (SN12C renal): > 100 µM | TGI (SNB-19 CNS): 52.4 µM | TGI (SNB-75 CNS): 41.7 µM | TGI (SNB-78 CNS): 54.1 µM | TGI (SW-620 colon): > 100 µM | TGI (TK-10 renal): 35.6 µM | TGI (U251 CNS): > 100 µM | TGI (UACC-257 melanoma): > 100 µM | TGI (UACC-62 melanoma): 96.8 µM | TGI (UO-31 renal): 80.2 µM | TGI (XF 498 CNS): 36.6 µM

— PubChem BioAssay (NCI)
